Earlier results in patent US12201623B1, “Composition and method for preventing long-term COVID-19 morbidity” (priority 2021, dated 2025).

Tested on: SARS-COV-2
Settings: peripheral blood monocytes purified from healthy volunteers

Row | SMILES | SARS-COV-2 replication
1 | CC(=O)N[C@@H](CS)C(=O)O [NAC] | suppressed
2 | COC1=C(OC)C(=O)C(CCCCCCCCCC[P+](c2ccccc2)(c2ccccc2)c2ccccc2)=C(C)C1=O [MitoQ] | suppressed
